# ChEMBL document CHEMBL4483862, “Open-source discovery of chemical leads for next-generation chemoprotective antimalarials” (2018)
# Tested on: Plasmodium berghei
# Assay: Luciferase/luciferin-expressing antifolate-resistant parasites were used to infect a culture of HepG2 cells that were pre-incubated with compounds. Infected hepatocytes emit light due to the luciferase reaction. Assay results are presented as the percent inhibition of light emission compared to control. […]
# Format: functional
# Conditions: sporozoite; for IC90: read-out: LUCIFERASE INFECTION ASSAY - IC90
# [1] = read-out: LUCIFERASE INFECTION ASSAY - IC50
Compound,IC90,further results
COc1cc(-c2ccc(N3CCN(c4ccncc4)CC3)nc2)cc(OC)c1OC,> 8.12 µM,"IC50 (HEPG2TOX_HILL_SLOPE 1.45, HEPG2TOX_R_SQUARED 0.424, PBLUC_HILL_SLOPE 3.58, PBLUC_R_SQUARED 0.452, read-out: LUCIFERASE INFECTION ASSAY - IC50): 6.09 µM"
COc1ccc(-c2ccc3nnc(-c4ccccc4)n3c2)cc1,5.12 µM,"IC50 (HEPG2TOX_HILL_SLOPE 1.32, HEPG2TOX_R_SQUARED 0.91, PBLUC_HILL_SLOPE 2.27, PBLUC_R_SQUARED 0.548, read-out: LUCIFERASE INFECTION ASSAY - IC50): 1.94 µM"
CC(C)Cc1ccc(C(C)c2nn3c(-c4cccnc4)nnc3s2)cc1 (stereo not drawn),5.44 µM,"IC50 (HEPG2TOX_HILL_SLOPE 0.365, HEPG2TOX_R_SQUARED 0.691, PBLUC_HILL_SLOPE 1.54, PBLUC_R_SQUARED 0.896, read-out: LUCIFERASE INFECTION ASSAY - IC50): 1.31 µM"
O=C(CN1CCN(C(c2ccc(F)cc2)c2ccc(F)cc2)CC1)Nc1nnc(-c2ccccc2)o1,1.43 µM,IC50 [1]: 1.23 µM
CC(Sc1nc(Nc2ccccc2)c2ccccc2n1)C(=O)Nc1sccc1C#N (stereo not drawn),> 10 µM,"IC50 (HEPG2TOX_HILL_SLOPE 2.3, HEPG2TOX_R_SQUARED 0.812, read-out: LUCIFERASE INFECTION ASSAY - IC50): > 10 µM"
CC(N)C(=O)NCC(F)(F)F (stereo not drawn),> 10 µM,IC50 [1]: > 10 µM
O=S(=O)(CCN1CCC(C(c2ccccc2)c2ccccc2)CC1)c1ccc(F)cc1,5.93 µM,"IC50 (PBLUC_HILL_SLOPE 2.04, PBLUC_R_SQUARED 0.498, read-out: LUCIFERASE INFECTION ASSAY - IC50): 2.02 µM"
CC(C)c1ccc(-c2cnc3sc(NCc4ccncc4)nn23)cc1,> 9.44 µM,"IC50 (FFLUC_HILL_SLOPE 6.11, FFLUC_R_SQUARED 0.0312, HEPG2TOX_HILL_SLOPE 0.148, HEPG2TOX_R_SQUARED 0.0475, read-out: LUCIFERASE INFECTION ASSAY - IC50): > 9.44 µM"
Oc1c2n(c(=S)n1-c1ccc(Cl)cc1)CCS2,> 11.6 µM,"IC50 (FFLUC_HILL_SLOPE 3.58, FFLUC_R_SQUARED 0.45, PBLUC_HILL_SLOPE 7.55, PBLUC_R_SQUARED 0.0946, read-out: LUCIFERASE INFECTION ASSAY - IC50): 10.5 µM"
O=C(C(/C=N/O)=N/Nc1ccc(C(F)(F)F)cc1)c1ccc(Br)cc1,3.98 µM,"IC50 (FFLUC_HILL_SLOPE 17.5, FFLUC_R_SQUARED 0.273, HEPG2TOX_HILL_SLOPE 2.17, HEPG2TOX_R_SQUARED 0.985, PBLUC_HILL_SLOPE 7.45, PBLUC_R_SQUARED 0.303, read-out: LUCIFERASE INFECTION ASSAY - IC50): 2.96 µM"
Oc1ccc(Cl)cc1/C=N/Nc1cccc(C(F)(F)F)c1,> 10.5 µM,"IC50 (HEPG2TOX_HILL_SLOPE 5.54, HEPG2TOX_R_SQUARED 0.477, read-out: LUCIFERASE INFECTION ASSAY - IC50): > 10.5 µM"
N#Cc1cnc2c(Cl)cc(F)cc2c1Cl,> 10 µM,IC50 [1]: > 10 µM
Cc1sc2ncn(CC(=O)NC(c3ccc(F)cc3)c3cccs3)c(=O)c2c1-c1ccccc1 (stereo not drawn),9.83 µM,"IC50 (FFLUC_HILL_SLOPE 15.7, FFLUC_R_SQUARED 0.526, PBLUC_HILL_SLOPE 17, PBLUC_R_SQUARED 0.112, read-out: LUCIFERASE INFECTION ASSAY - IC50): 8.64 µM"
Cc1ccc(Nc2ccc(-c3nc4ccccc4[nH]3)cn2)cc1C,4.25 µM,"IC50 (HEPG2TOX_HILL_SLOPE 3.79, 0.829, HEPG2TOX_R_SQUARED 0.701, 0.968, PBLUC_HILL_SLOPE 2.85, 14.2, PBLUC_R_SQUARED 0.393, 0.513, read-out: LUCIFERASE INFECTION ASSAY - IC50): 2.27 µM"
Cc1nn(-c2ccccc2)c(Oc2ccccc2)c1/C=C1\C(=O)Nc2ccccc21,1.95 µM,"IC50 (HEPG2TOX_HILL_SLOPE 0.509, HEPG2TOX_R_SQUARED 0.727, PBLUC_HILL_SLOPE 1.23, PBLUC_R_SQUARED 0.54, read-out: LUCIFERASE INFECTION ASSAY - IC50): 0.328 µM"
Cc1c(C(=O)Nc2ccccc2O)cnn1-c1cccc(C(F)(F)F)c1,3.64 µM,"IC50 (PBLUC_HILL_SLOPE 22.3, PBLUC_R_SQUARED 0.482, read-out: LUCIFERASE INFECTION ASSAY - IC50): 3.29 µM"
[O-][S+](Cc1cc(N2CCCCC2)nc(-c2ccccn2)n1)c1ccc(Cl)cc1 (stereo not drawn),> 7.99 µM,IC50 [1]: > 7.99 µM
COc1cccc(NC(=O)Nc2ccc(N3CCN(c4ncccc4C(F)(F)F)CC3)nc2)c1,> 6.98 µM,"IC50 (PBLUC_HILL_SLOPE 3.4, PBLUC_R_SQUARED 0.647, read-out: LUCIFERASE INFECTION ASSAY - IC50): 5.69 µM"
CCc1nc(N2CCN(C(=O)c3ccco3)CC2)c2ccc(Cl)cc2n1,> 8.9 µM,"IC50 (PBLUC_HILL_SLOPE 3.74, PBLUC_R_SQUARED 0.373, read-out: LUCIFERASE INFECTION ASSAY - IC50): 6.91 µM"
FC(F)(F)c1nnc2ccc(NC(c3ccccc3)c3cc4ccccc4o3)nn12 (stereo not drawn),4.2 µM,"IC50 (FFLUC_HILL_SLOPE 3.11, FFLUC_R_SQUARED 0.599, PBLUC_HILL_SLOPE 15.6, PBLUC_R_SQUARED 0.326, read-out: LUCIFERASE INFECTION ASSAY - IC50): 3.65 µM"

Compound,IC90,further results
N#C/C(=C\c1ccc(N(c2ccccc2)c2ccccc2)cc1)C(=O)Nc1nccs1,1.79 µM,IC50 [1]: 0.525 µM
COc1cc(Cl)c(C)cc1-n1c(SC(C(C)=O)c2ccccc2)nc2ccccc2c1=O (stereo not drawn),> 10 µM,"IC50 (FFLUC_HILL_SLOPE 3.43, FFLUC_R_SQUARED 0.242, HEPG2TOX_HILL_SLOPE 4.83, HEPG2TOX_R_SQUARED 0.785, PBLUC_HILL_SLOPE 3.87, PBLUC_R_SQUARED 0.683, read-out: LUCIFERASE INFECTION ASSAY - IC50): 6.65 µM"
CCN1C(=O)N(Cc2cccc(OC)c2)C(=O)C12CCN(C(C)CCc1c[nH]c3ccccc13)CC2 (stereo not drawn),5.56 µM,"IC50 (HEPG2TOX_HILL_SLOPE 4.28, HEPG2TOX_R_SQUARED 0.784, PBLUC_HILL_SLOPE 3.57, PBLUC_R_SQUARED 0.572, read-out: LUCIFERASE INFECTION ASSAY - IC50): 3 µM"
CN(C)c1nc(N)nc(CN(Cc2nc(N)nc(N(C)C)n2)C23CC4CC(CC(C4)C2)C3)n1,0.149 µM,"IC50 (HEPG2TOX_HILL_SLOPE 0.693, HEPG2TOX_R_SQUARED 0.937, PBLUC_HILL_SLOPE 2.94, PBLUC_R_SQUARED 0.84, read-out: LUCIFERASE INFECTION ASSAY - IC50): 0.0707 µM"
Cc1csc(SCC(=O)c2cc(C)n(-c3ccccc3)c2C)n1,0.219 µM,"IC50 (PBLUC_HILL_SLOPE 0.985, PBLUC_R_SQUARED 0.172, read-out: LUCIFERASE INFECTION ASSAY - IC50): 0.0235 µM"
CCC1(CC)CC(=O)N(CC(O)COc2ccc(C(C)(C)C)cc2)C1=O (stereo not drawn),> 10 µM,"IC50 (PBLUC_HILL_SLOPE 2.11, PBLUC_R_SQUARED 0.442, read-out: LUCIFERASE INFECTION ASSAY - IC50): 5.07 µM"
OCc1ccc(-c2cnc3cnc(-c4cccc(F)c4)cn23)cc1,> 10.3 µM,IC50 [1]: > 10.3 µM
CNc1snc(C)c1C(=O)NCC(C(C)C)N1CCc2ccccc2C1 (stereo not drawn),> 10 µM,IC50 [1]: > 10 µM
O=C(Nc1ccc(SC(F)(F)F)cc1)Nc1ccc(SC(F)(F)F)cc1,0.867 µM,"IC50 (HEPG2TOX_HILL_SLOPE 1.44, HEPG2TOX_R_SQUARED 0.886, PBLUC_HILL_SLOPE 1.62, PBLUC_R_SQUARED 0.668, read-out: LUCIFERASE INFECTION ASSAY - IC50): 0.223 µM"
c1ccc(SCc2ccc(-c3nc4ccccc4s3)cc2)nc1,8.53 µM,"IC50 (HEPG2TOX_HILL_SLOPE 2.39, HEPG2TOX_R_SQUARED 0.939, PBLUC_HILL_SLOPE 0.884, PBLUC_R_SQUARED 0.644, read-out: LUCIFERASE INFECTION ASSAY - IC50): 0.71 µM"
Cn1cc(-c2cnc3cnc(-c4ccsc4)cn23)cn1,> 11.7 µM,"IC50 (HEPG2TOX_HILL_SLOPE 1.9, HEPG2TOX_R_SQUARED 0.409, PBLUC_HILL_SLOPE 1.49, PBLUC_R_SQUARED 0.155, read-out: LUCIFERASE INFECTION ASSAY - IC50): > 11.7 µM"
CCOC(=O)c1sc(N)c(C#N)c1CSc1ncc(C(F)(F)F)cc1Cl,> 10 µM,"IC50 (PBLUC_HILL_SLOPE 1.96, PBLUC_R_SQUARED 0.0831, read-out: LUCIFERASE INFECTION ASSAY - IC50): > 10 µM"
CCOC(=O)c1sc(-c2ccccc2)cc1NC(=O)COC(=O)c1c2c(nc3ccccc13)CCC(C)C2 (stereo not drawn),> 10 µM,"IC50 (FFLUC_HILL_SLOPE 0.238, FFLUC_R_SQUARED 0.508, read-out: LUCIFERASE INFECTION ASSAY - IC50): > 10 µM"
COc1cc(-c2cc(C(=O)N/N=C3/C(=O)N(CC(C)C)c4ccccc43)c3ccccc3n2)cc(OC)c1OC,> 10 µM,IC50 [1]: > 10 µM
O=C(COC(=O)c1ccc2ccccc2c1)c1cc2c3c(c1)CC(=O)N3CCC2,> 10 µM,"IC50 (FFLUC_HILL_SLOPE 2.44, FFLUC_R_SQUARED 0.438, read-out: LUCIFERASE INFECTION ASSAY - IC50): > 10 µM"
Cc1cc(-c2csc(Nc3ccccn3)n2)c(C)n1-c1nccs1,> 10 µM,IC50 [1]: > 10 µM
COc1ccc(CNC(=O)NC2CCCCCCC2)cn1,> 10 µM,IC50 [1]: > 10 µM
COc1ccccc1NC(=O)Nc1nc(C(N)CCc2ccccc2)cs1 (stereo not drawn),> 8.63 µM,"IC50 (PBLUC_HILL_SLOPE 2.77, PBLUC_R_SQUARED 0.721, read-out: LUCIFERASE INFECTION ASSAY - IC50): 5.07 µM"
COc1ccc(-c2nc3cnc(Nc4cccc(OC(F)(F)F)c4)cc3n2C)cc1OC,> 10 µM,"IC50 (PBLUC_HILL_SLOPE 2.08, PBLUC_R_SQUARED 0.244, read-out: LUCIFERASE INFECTION ASSAY - IC50): > 10 µM"
